Results: US20090069336A1, “PYRIMIDOTHIOPHENE COMPOUNDS” (VERNALIS (CAMBRIDGE) LIMITED., priority 2004, published 2009)
Read-outs that look alike come from different tables or passages of the source.

Target: T1, human full-length HSP90 (Homo sapiens, UniProt P08238)
T1 construct: E. coli expressed human full-length HSP90 protein, purified >95%; made in house; host or cells: E. coli
Assay: Fluorescence polarization assay (competitive displacement of probe RBT0051001-FAM from HSP90)
Type: binding
Text: Fluorescence Polarization Assay
Fluorescence polarization {also known as fluorescence anisotropy} measures the rotation of a fluorescing species in solution, where the larger molecule the more polarized the fluorescence emission. When the fluorophore is excited with polarized light, the emitted light is also polarized. The molecular size is proportional to the polarization of the fluorescence emission.
The fluoroscein-labelled probe —RBT0051001-FAM—
binds to HSP90 {full-length human, full-length yeast or N-terminal domain HSP90} and the anisotropy {rotation of the probe:protein complex} is measured.
Test compound is added to the assay plate, left to equilibrate and the anisotropy measured again. Any change in anisotropy is due to competitive binding of compound to HSP90, thereby releasing probe.
Chemicals are of the highest purity commercially available and all aqueous solutions are made up in AR water. • 1) Costar 96-well black assay plate #3915 • 2) Assay buffer of (a) 100 mM Tris pH7.4; (b) 20 mM KCl; (c) 6 mM MgCl2. Stored at room temperature. • 3) BSA (bovine serum albumen) 10 mg/ml (New England Biolabs # B9001S) • 4) 20 mM probe in 100% DMSO stock concentration. Stored in the dark at RT. Working concentration is 200 nM diluted in AR water and stored at 4° C. Final concentration in assay 80 nM. • 5) E. coli expressed human full-length HSP90 protein, purified >95% (see, e.g., Panaretou et al., 1998) and stored in 50 μL aliquots at −80° C.
• 1) Add 100 μl 1× buffer to wells 11A and 12A (=FP BLNK) • 2) Prepare assay mix—all reagents are kept on ice with a lid on the bucket as the probe is light-sensitive.
• 3) Aliquot 100 μl assay mix to all other wells • 4) Seal plate and leave in dark at room temp for 20 minutes to equilibrate Compound Dilution Plate—1×3 dilution series • 1) In a clear 96-well v-bottom plate-{# VWR 007/008/257} add 10 μl 100% DMSO to wells B1 to H11 • 2) To wells A1 to A11 add 17.5 μl 100% DMSO • 3) Add 2.5 μl cpd to A1. This gives 2.5 mM {50×} stock cpd-assuming cpds 20 mM. • 4) Repeat for wells A2 to A10. Control in columns 11 and 12. • 5) Transfer 5 μl from row A to row B—not column 12. Mix well. • 6) Transfer 5 μl from row B to row C. […] In column 11 {provides standard curve} only add compound B11-H11. Add 2 μl of 100 mM standard cpd to wells B12-H12 {is positive control} • 13) The Z′ factor is calculated from zero controls and positive wells. It typically gives a value of 0.7-0.9.
The compounds tested in the above assay were assigned to one of two activity ranges, namely A=<10 μM; B=>10 μM, and those assignments are reported above.

[1] = activity range stated in each example, read-out: activity in the fluorescence polarization assay
[2] = Table 1, read-out: Hsp90 FP IC50

T1 sequence (P08238 whole entry): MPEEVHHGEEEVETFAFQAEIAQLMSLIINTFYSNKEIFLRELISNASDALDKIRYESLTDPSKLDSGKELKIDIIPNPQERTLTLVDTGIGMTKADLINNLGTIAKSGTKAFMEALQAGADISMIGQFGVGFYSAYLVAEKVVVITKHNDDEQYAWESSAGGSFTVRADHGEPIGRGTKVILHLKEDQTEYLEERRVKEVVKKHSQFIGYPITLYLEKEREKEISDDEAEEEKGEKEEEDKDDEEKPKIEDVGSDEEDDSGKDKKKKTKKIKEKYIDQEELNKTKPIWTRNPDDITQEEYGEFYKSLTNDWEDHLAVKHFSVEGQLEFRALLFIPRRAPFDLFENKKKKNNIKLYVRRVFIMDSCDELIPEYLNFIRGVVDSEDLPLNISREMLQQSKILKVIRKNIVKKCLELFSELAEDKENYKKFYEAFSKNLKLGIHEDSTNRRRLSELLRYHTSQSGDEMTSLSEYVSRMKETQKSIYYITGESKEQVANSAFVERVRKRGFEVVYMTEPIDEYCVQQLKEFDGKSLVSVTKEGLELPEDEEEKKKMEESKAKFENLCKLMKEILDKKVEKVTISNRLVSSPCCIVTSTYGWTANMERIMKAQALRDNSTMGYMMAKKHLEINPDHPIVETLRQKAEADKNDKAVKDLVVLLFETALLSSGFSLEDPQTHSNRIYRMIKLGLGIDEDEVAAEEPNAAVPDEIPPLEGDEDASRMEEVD

| Compound | IC50 [1] [µM] | IC50 [2] [µM] |
| --- | --- | --- |
| Nc1nc(-c2ccc(Cl)cc2Cl)c2cc(C(=O)O)sc2n1 [Example 1, 2-Amino-4-(2,4-dichloro-phenyl)-thieno[2,3-d]pyrimidine-6-carboxylic acid] | < 10 |  |
| Cc1ccc(-c2nc(N)nc3sc(C(=O)O)cc23)c(C)c1 [Example 2, 2-Amino-4-(2,4-dimethyl-phenyl)-thieno[2,3-d]pyrimidine-6-carboxylic acid] | > 10 |  |
| CC(C)(O)c1cc2c(-c3ccc(Cl)cc3Cl)nc(N)nc2s1 [Example 3, 2-[2-Amino-4-(2,4-dichloro-phenyl)-thieno[2,3-d]pyrimidin-6-yl]-propan-2-ol] | > 10 |  |
| CCC(O)(CC)c1cc2c(-c3ccc(Cl)cc3Cl)nc(N)nc2s1 [Example 4, 3-[2-Amino-4-(2,4-dichloro-phenyl)-thieno[2,3-d]pyrimidin-6-yl]-pentan-3-ol] | < 10 |  |
| Nc1nc(-c2ccc(Cl)cc2Cl)c2cc(C(O)(c3ccccc3)c3ccccc3)sc2n1 [Example 5, [2-Amino-4-(2,4-dichloro-phenyl)-thieno[2,3-d]pyrimidin-6-yl]-diphenyl-methanol] | > 10 |  |
| Nc1nc(-c2ccc(Cl)cc2Cl)c2cc(CO)sc2n1 [Example 6, [2-Amino-4-(2,4-dichloro-phenyl)-thieno[2,3-d]pyrimidin-6-yl]methanol] | < 10 |  |
| Cc1ccc(-c2nc(N)nc3sc(C#N)cc23)c(C)c1 [Example 7, 2-Amino-4-(2,4-dimethylphenyl)-thieno[2,3-d]pyrimidine-6-carbonitrile] | < 10 |  |
| CCC(=O)c1cc2c(-c3ccc(Cl)cc3Cl)nc(N)nc2s1 [Example 8, 1-[2-Amino-4-(2,4-dichloro-phenyl)-thieno[2,3-d]pyrimidine-6-yl]-propan-1-one] | < 10 |  |
| Nc1nc(-c2ccc(Cl)cc2Cl)c2cc(C(=O)c3ccccc3)sc2n1 [Example 9, [2-Amino-4-(2,4-dichloro-phenyl)-thieno[2,3-d]pyrimidine-6-yl]-phenyl-methanone] | < 10 |  |
| Cc1ccc(-c2nc(N)nc3sc(C4=NCCN4)cc23)c(C)c1 [Example 11, 6-(4,5-Dihydro-1H-imidazol-2-yl)-4-(2,4-dimethyl-phenyl)-thieno[2,3-d]pyrimidin-2-ylamine] | < 10 |  |
| CN1CCN(NC(=O)c2cc3c(-c4ccc(Cl)cc4Cl)nc(N)nc3s2)CC1 [Example 12, 2-Amino-4-(2,4-dichloro-phenyl)-thieno[2,3-d]pyrimidine-6-carboxylic acid (4-methyl-piperazin-1-yl) amide] | < 10 |  |
| Nc1nc(-c2ccc(Cl)cc2Cl)c2cc(C(=O)Nn3cnnc3)sc2n1 [Example 13, 2-Amino-4-(2,4-dichloro-phenyl)-thieno[2,3-d]pyrimidine-6-carboxylic acid [1,2,4]triazol-4-ylamide] | < 10 |  |
| CONC(=O)c1cc2c(-c3ccc(Cl)cc3Cl)nc(N)nc2s1 [Example 14] |  | < 10 |
| CCONC(=O)c1cc2c(-c3ccc(Cl)cc3Cl)nc(N)nc2s1 [Example 15] |  | < 10 |
| CNNC(=O)c1cc2c(-c3ccc(Cl)cc3Cl)nc(N)nc2s1 [Example 16] |  | < 10 |
| CCCNC(=O)c1ccc(C)c(-c2nc(N)nc3sc(C(=O)NOC)cc23)c1 [Example 17] |  | < 10 |

| Compound | IC50 [1] [µM] | IC50 [2] [µM] |
| --- | --- | --- |
| CCCNCc1cc2c(-c3ccc(C)cc3C)nc(N)nc2s1 [Example 18, 4-(2,4-dimethyl-phenyl)-6-propylaminomethyl-thieno[2,3-d]pyrimidin-2-ylamine] | < 10 |  |
| Cc1cc(-c2cc3c(-c4ccc(Cl)cc4Cl)nc(N)nc3s2)[nH]n1 [Example 19, 4-(2,4-Dichloro-phenyl)-6-(5-methyl-2H-pyrazol-3-yl)-thieno[2,3-d]pyrimidin-2-ylamine] | < 10 |  |
| Cc1cn[nH]c1-c1cc2c(-c3ccc(Cl)cc3Cl)nc(N)nc2s1 [Example 20, 4-(2,4-Dichloro-phenyl)-6-(4-methyl-2H-pyrazol-3-yl)-thieno[2,3-d]pyrimidin-2-ylamine] | < 10 |  |
| Nc1nc(-c2ccc(Cl)cc2Cl)c2cc(-c3ccc[nH]3)sc2n1 [Example 21, 4-(2,4-Dichloro-phenyl)-6-(1H-pyrrol-2-yl)-thieno[2,3-d]pyrimidin-2-ylamine] | < 10 |  |
| CC(=O)Nc1nc(C)c(-c2cc3c(-c4ccc(Cl)cc4Cl)nc(N)nc3s2)[nH]1 [Example 22, N-{5-[2-Amino-4-(2,4-dichloro-phenyl)-thieno[2,3-d]pyrimidin-6-yl]-4-methyl-1H-imidazol-2-yl}-acetamide] | < 10 |  |
| Nc1nc(-c2ccc(Cl)cc2Cl)c2cc(-c3cnc[nH]3)sc2n1 [Example 24, 4-(2,4-Dichloro-phenyl)-6-(3H-imidazol-4-yl)-thieno[2,3-d]pyrimidin-2-ylamine] | < 10 |  |
| NCc1cc2c(-c3ccc(Cl)cc3Cl)nc(N)nc2s1 [Example 25, 6-Aminomethyl-4-(2,4-dichloro-phenyl)-thieno[2,3-d]pyrimidin-2-ylamine] | < 10 |  |
| CC(=O)NCc1cc2c(-c3ccc(Cl)cc3Cl)nc(N)nc2s1 [Example 26, N-[2-Amino-4-(2,4-dichloro-phenyl)-thieno[2,3-d]pyrimidin-6-ylmethyl]-acetamide] | < 10 |  |
| Cc1ccc(-c2nc(N)nc3sccc23)c(C)c1 [Example 27, 4-(2,4-Dimethyl-phenyl)-thieno[2,3-d]pyrimidine-2-ylamine] | < 10 |  |
| N#Cc1cc2c(-c3cc(OCc4ccccc4)c(Cl)cc3Cl)nc(N)nc2s1 [Example 28, 2-amino-4-(5-benzyloxy-2,4-dichloro-phenyl)-thieno[2,3-d]pyrimidine-6-carbonitrile] | < 10 |  |
| CCN(CC)CCOc1cc(-c2nc(N)nc3sc(C#N)cc23)c(Cl)cc1Cl [Example 29, 2-Amino-4-[2,4-dichloro-5-(diethylamino-ethoxy)-phenyl]-thieno[2,3-d]pyrimidine-6-carbonitrile] | < 10 |  |
| CCN(CC)CCOc1cc(-c2nc(N)nc3sc(/C(N)=N/O)cc23)c(Cl)cc1Cl [Example 30, 2-Amino-4-[2,4-dichloro-5-(2-diethylamino-ethoxy)-phenyl]-N-hydroxy-thieno[2,3-d]pyrimidine-6-carboxamidine] | < 10 |  |
| CCN(CC)CCOc1cc(-c2nc(N)nc3sc(C4=NCCN4)cc23)c(Cl)cc1Cl [Example 31, 4-[2,4-dichloro-5-(2-diethylamino-ethoxy)-phenyl]-6-(4,5-dihydro-1H-imidazol-2-yl)-thieno[2,3-d]pyrimidin-2-ylamine] | < 10 |  |
| CCN(CC)CCOc1cc(-c2nc(N)nc3sc(CO)cc23)c(Cl)cc1Cl [Example 32, {2-amino-4-[2,4-dichloro-5-(2-diethylamino-ethoxy)-phenyl]-thieno[2,3-d]pyrimidin-6-yl}-methanol] | < 10 |  |
| CCN(CC)CCOc1cc(-c2nc(N)nc3sc(C=O)cc23)c(Cl)cc1Cl [Example 33, 2-amino-4-[2,4-dicholoro-5-(2-diethylamino-ethoxy)-phenyl]thieno[2,3-d]pyrimidine-6-carbaldehyde] | < 10 |  |
| CCN(CC)CCOc1cc(-c2nc(N)nc3sc(/C=C/C(C)=O)cc23)c(Cl)cc1Cl [Example 34, 4-{2-Amino-4-[2,4-dicholoro-5-(2-diethylamino-ethoxy)-phenyl]thieno[2,3-d]pyrimidine-6-yl}-but-3-en-2-one] | < 10 |  |
